Test results as given in PubChem BioAssay (NCI).
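96-well plates; 48 h exposure; 5 concentrations. Endpoints by linear interpolation between flanking doses. Not reached: highest tested concentration assigned. At the TGI there is no net growth.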

Experiments:
Assay in all cases: growth of human tumour cells (NCI), 48 h
SR leukemia = system: SR leukemia
RPMI-8226 leukemia = system: RPMI-8226 leukemia
MCF7 breast = system: MCF7 breast
NCI-H460 lung = system: NCI-H460 lung
A549 NSCLC = system: A549 NSCLC
EKVX NSCLC = system: EKVX NSCLC
HOP-92 NSCLC = system: HOP-92 NSCLC
SW-620 colon = system: SW-620 colon
PC-3 prostate = system: PC-3 prostate
CCRF-CEM leukemia = system: CCRF-CEM leukemia
MDA-MB-435 = system: MDA-MB-435
SN12C renal = system: SN12C renal
SF-539 CNS = system: SF-539 CNS
MALME-3M melanoma = system: MALME-3M melanoma
MOLT-4 leukemia = system: MOLT-4 leukemia
OVCAR-4 ovarian = system: OVCAR-4 ovarian
SK-MEL-28 melanoma = system: SK-MEL-28 melanoma
CAKI-1 renal = system: CAKI-1 renal
T-47D breast = system: T-47D breast
SNB-75 CNS = system: SNB-75 CNS
HS 578T breast = system: HS 578T breast
K-562 leukemia = system: K-562 leukemia
786-0 renal = system: 786-0 renal
SNB-19 CNS = system: SNB-19 CNS
ACHN renal = system: ACHN renal
HL-60(TB) leukemia = system: HL-60(TB) leukemia
MDA-N = system: MDA-N
IGROV1 ovarian = system: IGROV1 ovarian
A498 renal = system: A498 renal
SK-MEL-2 melanoma = system: SK-MEL-2 melanoma
TK-10 renal = system: TK-10 renal
NCI-H23 lung = system: NCI-H23 lung
HCT-15 colon = system: HCT-15 colon
OVCAR-3 ovarian = system: OVCAR-3 ovarian
HCT-116 colon = system: HCT-116 colon
SF-295 CNS = system: SF-295 CNS
NCI-H226 lung = system: NCI-H226 lung
UACC-62 melanoma = system: UACC-62 melanoma
HT29 colon = system: HT29 colon
SF-268 CNS = system: SF-268 CNS
LOX IMVI melanoma = system: LOX IMVI melanoma
NCI/ADR-RES ovarian = system: NCI/ADR-RES ovarian
KM12 colon = system: KM12 colon
MDA-MB-231 breast = system: MDA-MB-231 breast
HCC-2998 colon = system: HCC-2998 colon
DU-145 prostate = system: DU-145 prostate
M14 melanoma = system: M14 melanoma
RXF 393 renal = system: RXF 393 renal
OVCAR-5 ovarian = system: OVCAR-5 ovarian
UACC-257 melanoma = system: UACC-257 melanoma
OVCAR-8 ovarian = system: OVCAR-8 ovarian
U251 CNS = system: U251 CNS
SK-MEL-5 melanoma = system: SK-MEL-5 melanoma
HOP-62 NSCLC = system: HOP-62 NSCLC
NCI-H522 lung = system: NCI-H522 lung
COLO 205 colon = system: COLO 205 colon
SK-OV-3 ovarian = system: SK-OV-3 ovarian
UO-31 renal = system: UO-31 renal

O=C(CCCN1CCC2(CC1)C(=NC1CCCCC1)NC(=O)N2c1ccccc1)c1ccc(F)cc1
TGI (SR leukemia): 46.1 µM | TGI (RPMI-8226 leukemia): 49.5 µM | TGI (MCF7 breast): 33.1 µM | TGI (NCI-H460 lung): 54.5 µM | TGI (A549 NSCLC): > 100 µM | TGI (EKVX NSCLC): > 100 µM | TGI (HOP-92 NSCLC): 37.8 µM | TGI (SW-620 colon): > 100 µM | TGI (PC-3 prostate): 43.3 µM | TGI (CCRF-CEM leukemia): 64.4 µM | TGI (MDA-MB-435): 38.8 µM | TGI (SN12C renal): 40.7 µM | TGI (SF-539 CNS): 33.9 µM | TGI (MALME-3M melanoma): 29.9 µM | TGI (MOLT-4 leukemia): 57.2 µM | TGI (OVCAR-4 ovarian): > 100 µM | TGI (SK-MEL-28 melanoma): 34.2 µM | TGI (CAKI-1 renal): > 100 µM | TGI (T-47D breast): 76.4 µM | TGI (SNB-75 CNS): 56 µM | TGI (HS 578T breast): 88.4 µM | TGI (K-562 leukemia): > 100 µM | TGI (786-0 renal): 45 µM | TGI (SNB-19 CNS): > 100 µM | TGI (ACHN renal): > 100 µM | TGI (HL-60(TB) leukemia): 57.4 µM | TGI (MDA-N): 34.9 µM | TGI (IGROV1 ovarian): 62.2 µM | TGI (A498 renal): 34.1 µM | TGI (SK-MEL-2 melanoma): 31.9 µM | TGI (TK-10 renal): 63.2 µM | TGI (NCI-H23 lung): 48.1 µM | TGI (HCT-15 colon): > 100 µM | TGI (OVCAR-3 ovarian): 31.6 µM | TGI (HCT-116 colon): 46.1 µM | TGI (SF-295 CNS): 39.2 µM | TGI (NCI-H226 lung): 32.3 µM | TGI (UACC-62 melanoma): 46.5 µM | TGI (HT29 colon): 37 µM | TGI (SF-268 CNS): 40.1 µM | TGI (LOX IMVI melanoma): 30 µM | TGI (NCI/ADR-RES ovarian): 51.4 µM | TGI (KM12 colon): 42.5 µM | TGI (MDA-MB-231 breast): 26.1 µM | TGI (HCC-2998 colon): 37.7 µM | TGI (DU-145 prostate): > 100 µM | TGI (M14 melanoma): 32.8 µM | TGI (RXF 393 renal): 89 µM | TGI (OVCAR-5 ovarian): 55 µM | TGI (UACC-257 melanoma): 36 µM | TGI (OVCAR-8 ovarian): 68.4 µM | TGI (U251 CNS): 81.1 µM | TGI (SK-MEL-5 melanoma): 37.9 µM | TGI (HOP-62 NSCLC): 37.5 µM | TGI (NCI-H522 lung): 51.3 µM | TGI (COLO 205 colon): 31.2 µM

O=C1CCCc2cc3c(cc21)CC1(C3)Cc2ccc3c(c2C1)C(=O)CCC3 (stereo not drawn)
TGI (SR leukemia): 40.3 µM | TGI (RPMI-8226 leukemia): 50.8 µM | TGI (MCF7 breast): 42.8 µM | TGI (NCI-H460 lung): > 100 µM | TGI (A549 NSCLC): > 100 µM | TGI (EKVX NSCLC): > 100 µM | TGI (HOP-92 NSCLC): > 100 µM | TGI (SW-620 colon): > 100 µM | TGI (PC-3 prostate): > 100 µM | TGI (CCRF-CEM leukemia): 58.8 µM | TGI (MDA-MB-435): 23.8 µM | TGI (SN12C renal): > 100 µM | TGI (SF-539 CNS): > 100 µM | TGI (MALME-3M melanoma): 43.6 µM | TGI (MOLT-4 leukemia): 22.7 µM | TGI (OVCAR-4 ovarian): > 100 µM | TGI (SK-MEL-28 melanoma): 80.6 µM | TGI (SK-OV-3 ovarian): > 100 µM | TGI (CAKI-1 renal): > 100 µM | TGI (T-47D breast): > 100 µM | TGI (SNB-75 CNS): 80.4 µM | TGI (HS 578T breast): > 100 µM | TGI (K-562 leukemia): > 100 µM | TGI (786-0 renal): > 100 µM | TGI (SNB-19 CNS): > 100 µM | TGI (ACHN renal): 55.4 µM | TGI (HL-60(TB) leukemia): 27.7 µM | TGI (MDA-N): 26.1 µM | TGI (IGROV1 ovarian): > 100 µM | TGI (A498 renal): > 100 µM | TGI (SK-MEL-2 melanoma): 88.9 µM | TGI (TK-10 renal): > 100 µM | TGI (NCI-H23 lung): > 100 µM | TGI (HCT-15 colon): > 100 µM | TGI (OVCAR-3 ovarian): 69.9 µM | TGI (HCT-116 colon): > 100 µM | TGI (SF-295 CNS): > 100 µM | TGI (NCI-H226 lung): 90.1 µM | TGI (HT29 colon): > 100 µM | TGI (SF-268 CNS): > 100 µM | TGI (LOX IMVI melanoma): > 100 µM | TGI (NCI/ADR-RES ovarian): 37 µM | TGI (KM12 colon): 37.9 µM | TGI (MDA-MB-231 breast): > 100 µM | TGI (UO-31 renal): > 100 µM | TGI (HCC-2998 colon): > 100 µM | TGI (DU-145 prostate): > 100 µM | TGI (M14 melanoma): 36.3 µM | TGI (RXF 393 renal): > 100 µM | TGI (OVCAR-5 ovarian): > 100 µM | TGI (UACC-257 melanoma): 26.5 µM | TGI (OVCAR-8 ovarian): > 100 µM | TGI (U251 CNS): > 100 µM | TGI (SK-MEL-5 melanoma): 7.66 µM | TGI (HOP-62 NSCLC): > 100 µM | TGI (NCI-H522 lung): > 100 µM | TGI (COLO 205 colon): 34.9 µM
